Experimental data from article PMC11868595, “Safety, pharmacokinetics and efficacy of HA121-28 in patients with advanced solid tumors and RET fusion-positive non-small-cell lung cancer: a multicenter, open-label, single-arm phase 1/2 trial” (Signal Transduction and Targeted Therapy, 2025).

What was measured:
RET = RET (Homo sapiens, UniProt P07949); assay: Tyrosine kinase inhibition; assay type: biochemical
Plasma protein binding = assay type: in vitro ADME; conditions: dogs
PDGFRβ = PDGFRβ (Homo sapiens, UniProt P09619); assay: Tyrosine kinase inhibition; assay type: biochemical
Chain of PDGFRβ (P09619 33-1106): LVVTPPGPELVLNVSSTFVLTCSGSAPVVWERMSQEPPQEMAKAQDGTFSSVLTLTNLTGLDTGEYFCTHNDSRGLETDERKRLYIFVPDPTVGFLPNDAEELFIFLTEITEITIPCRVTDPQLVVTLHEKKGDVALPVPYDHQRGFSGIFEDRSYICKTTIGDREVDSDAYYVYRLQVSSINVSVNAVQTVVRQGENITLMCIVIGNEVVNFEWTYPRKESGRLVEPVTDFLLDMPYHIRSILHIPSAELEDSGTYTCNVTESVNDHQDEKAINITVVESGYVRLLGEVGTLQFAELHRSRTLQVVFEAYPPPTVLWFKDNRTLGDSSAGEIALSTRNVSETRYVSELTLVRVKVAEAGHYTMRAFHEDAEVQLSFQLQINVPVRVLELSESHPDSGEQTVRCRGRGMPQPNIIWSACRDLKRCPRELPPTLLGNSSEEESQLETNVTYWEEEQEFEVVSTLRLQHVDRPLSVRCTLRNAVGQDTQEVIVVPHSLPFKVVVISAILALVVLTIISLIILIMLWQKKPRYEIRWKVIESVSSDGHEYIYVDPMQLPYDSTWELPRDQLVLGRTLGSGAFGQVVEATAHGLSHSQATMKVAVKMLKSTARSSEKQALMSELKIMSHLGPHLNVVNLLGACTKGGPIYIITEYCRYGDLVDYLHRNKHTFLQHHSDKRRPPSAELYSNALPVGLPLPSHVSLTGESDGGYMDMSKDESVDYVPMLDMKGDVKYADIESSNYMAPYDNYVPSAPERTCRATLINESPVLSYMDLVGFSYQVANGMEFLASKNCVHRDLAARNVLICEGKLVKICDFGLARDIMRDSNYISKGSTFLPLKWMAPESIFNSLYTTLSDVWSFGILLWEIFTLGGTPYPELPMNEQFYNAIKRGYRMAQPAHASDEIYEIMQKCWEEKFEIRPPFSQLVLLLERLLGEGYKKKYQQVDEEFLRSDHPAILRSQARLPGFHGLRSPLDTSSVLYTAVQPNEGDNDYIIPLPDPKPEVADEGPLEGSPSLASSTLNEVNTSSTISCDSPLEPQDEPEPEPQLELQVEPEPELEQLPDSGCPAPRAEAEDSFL

Mouse micronucleus test = conditions: in vivo mouse micronucleus test
LCK = LCK (Homo sapiens, UniProt P06239); assay: Tyrosine kinase inhibition; assay type: biochemical
Chain of LCK (P06239 whole entry): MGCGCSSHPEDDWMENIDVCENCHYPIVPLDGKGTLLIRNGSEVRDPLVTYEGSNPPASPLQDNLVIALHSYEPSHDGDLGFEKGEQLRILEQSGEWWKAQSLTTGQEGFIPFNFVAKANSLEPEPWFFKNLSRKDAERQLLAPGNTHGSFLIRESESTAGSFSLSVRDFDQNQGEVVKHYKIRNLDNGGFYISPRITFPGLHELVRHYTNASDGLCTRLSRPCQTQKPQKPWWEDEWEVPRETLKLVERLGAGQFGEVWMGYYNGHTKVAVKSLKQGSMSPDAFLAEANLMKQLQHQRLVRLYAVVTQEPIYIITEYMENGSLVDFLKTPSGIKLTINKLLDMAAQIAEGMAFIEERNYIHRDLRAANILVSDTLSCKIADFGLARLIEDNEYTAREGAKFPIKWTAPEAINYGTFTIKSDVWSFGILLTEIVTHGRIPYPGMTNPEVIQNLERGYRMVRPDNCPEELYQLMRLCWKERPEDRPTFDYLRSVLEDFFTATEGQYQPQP

Chain of RET (P07949 29-1114): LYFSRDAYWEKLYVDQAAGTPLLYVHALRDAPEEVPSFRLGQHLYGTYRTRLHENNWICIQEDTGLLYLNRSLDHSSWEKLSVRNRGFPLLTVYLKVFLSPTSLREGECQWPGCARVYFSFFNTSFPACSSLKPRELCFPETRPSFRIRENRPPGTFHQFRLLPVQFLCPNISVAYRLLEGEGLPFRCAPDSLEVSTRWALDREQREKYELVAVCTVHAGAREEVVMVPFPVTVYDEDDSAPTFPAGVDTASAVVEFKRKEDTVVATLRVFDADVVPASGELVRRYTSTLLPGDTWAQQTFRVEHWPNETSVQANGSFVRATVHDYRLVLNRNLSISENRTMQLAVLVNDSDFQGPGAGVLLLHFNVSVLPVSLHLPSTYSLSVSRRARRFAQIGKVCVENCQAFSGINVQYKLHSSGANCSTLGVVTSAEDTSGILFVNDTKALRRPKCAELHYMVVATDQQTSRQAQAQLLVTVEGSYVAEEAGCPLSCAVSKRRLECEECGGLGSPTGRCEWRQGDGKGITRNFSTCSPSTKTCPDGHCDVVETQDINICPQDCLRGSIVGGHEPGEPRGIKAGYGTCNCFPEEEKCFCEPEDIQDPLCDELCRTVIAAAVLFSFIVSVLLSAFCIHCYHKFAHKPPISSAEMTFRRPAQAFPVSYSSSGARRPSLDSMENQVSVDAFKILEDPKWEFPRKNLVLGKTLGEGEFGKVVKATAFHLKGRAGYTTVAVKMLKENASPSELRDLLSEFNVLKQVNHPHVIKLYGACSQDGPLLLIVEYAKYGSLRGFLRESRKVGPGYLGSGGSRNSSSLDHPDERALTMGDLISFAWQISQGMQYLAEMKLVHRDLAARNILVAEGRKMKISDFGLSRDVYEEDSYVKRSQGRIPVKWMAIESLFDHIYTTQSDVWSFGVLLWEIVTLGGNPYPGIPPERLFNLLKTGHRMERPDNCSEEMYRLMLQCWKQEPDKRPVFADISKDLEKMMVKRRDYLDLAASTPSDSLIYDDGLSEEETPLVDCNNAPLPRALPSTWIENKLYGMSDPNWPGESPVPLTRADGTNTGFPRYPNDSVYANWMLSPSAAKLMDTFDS

COc1cc2c(Nc3ccc(Br)cc3F)ncnc2cc1OCCCCN(C)C.Cl.Cl [HA121-28, N-(4-bromo-2-fluorophenyl)-7-(4-(dimethylamino)butoxy)-6-methoxy quinazolin-4-amine dihydrochloride]
IC50 (RET): 8.72 nM
plasma protein binding rate (Plasma protein binding): 91.9±0.857%
IC50 (PDGFRβ): 165 nM
genetic toxicity (Mouse micronucleus test): negative
IC50 (LCK): 14 nM
